In US8309582B2, “Small molecule Bcl-Xl/Bcl-2 binding inhibitors” (The Ohio State University Research Foundation, priority 2004, dated 2012):
Where two headings read alike, the source gives them in different places.

What was measured:
[1] = target: T1, Bcl-xL (Homo sapiens, UniProt Q07817); assay: Competitive fluorescence polarization assay, displacement of Flu-BakBH3 peptide from Bcl-xL; format: binding
T1 construct: fused on or other part: His tag
Experimental: (§1) Competitive Fluorescence Polarization Assay. The binding affinity of the test agent to Bcl-2 and Bcl-xL was analyzed by a competitive fluorescence polarization assay, in which the ability of the agent to displace the binding of a Bak BH3-domain peptide to either Bcl-2 or Bcl-xL was determined. Flu-BakBH3, a Bak-BH3 peptide labeled at the N-terminus with fluorescein, was purchased from Genemed Synthesis (San Francisco, Calif.). C-Terminal-truncated, His-tagged Bcl-xL was purchased from EMD Biosciences (San Diego, Calif.), and soluble GST-fused Bcl-2 was obtained from Santa Cruz (Santa Cruz, Calif.). The KD determination was carried out in a dual-pathlength quartz cell with readings taken at […] at room temperature using a luminescence spectrometer according to an established procedure (17). Determination of IC50 values. Data from cell viability and FP assays were analyzed by using the CalcuSyn software (Biosoft, Ferguson, Mo.) to determine IC50 values, in which the calculation was based on the medium effect equation (18), i.e., Log(fa/fu)=m log(D)−m log(Dm) (equation 1), where fa and fu denote fraction affected and unaffected, respectively; m represents the Hill-type coefficient signifying the sigmoidicity of the dose-effect curve; D and Dm are the dose used and IC50, respectively.

[2] = target: Bcl-2 (Homo sapiens, UniProt P10415); assay: Competitive fluorescence polarization assay, displacement of Flu-BakBH3 peptide from Bcl-2; format: binding
Experimental: as §1

[3] = test system: PC-3 cells; assay: Cell viability analysis (MTT) in PC-3 cells; format: cell-based; details: Homo sapiens, PC-3, PC-3 cells, read-out: IC50 (μM) PC3
Experimental: Cell viability analysis. The effect of individual test agents on cell viability was assessed by using the MTT {[3-(4,5-dimethylthiazol-2-yl)-2,5-diphenyl-2H-tetrazolium bromide]} assay in six to twelve replicates. […] Controls received DMSO vehicle at a concentration equal to that in drug-treated cells. […] Supernatants were removed from the wells, and the reduced MTT dye was solubilized in 200 μl/well DMSO. Absorbance at 570 nm was determined on a plate reader.
(§2) Determination of IC50 values. Data from cell viability and FP assays were analyzed by using the CalcuSyn software (Biosoft, Ferguson, Mo.) to determine IC50 values, in which the calculation was based on the medium effect equation (18), i.e., Log(fa/fu)=m log(D)−m log(Dm) (equation 1), where fa and fu denote fraction affected and unaffected, respectively; m represents the Hill-type coefficient signifying the sigmoidicity of the dose-effect curve; D and Dm are the dose used and IC50, respectively.

[4] = MTT assay (IC50 for MTT, Tables 1-9); format: cell-based; details: cell line and unit inferred
Experimental: Cell viability analysis. The effect of individual test agents on cell viability was assessed by using the MTT {[3-(4,5-dimethylthiazol-2-yl)-2,5-diphenyl-2H-tetrazolium bromide]} assay in six to twelve replicates. Cells were seeded and incubated in 96-well, flat-bottomed plates in serum-free media for 24 h, and were exposed to various concentrations of test agents dissolved in DMSO (final concentration, 0.1%) in serum-free RPMI 1640 medium for different time intervals. Controls received DMSO vehicle at a concentration equal to that in drug-treated cells. The medium was removed, replaced by 200 μl of 0.5 mg/ml of MTT in 10% FBS-containing RPMI-1640 medium, and cells were incubated in the CO2 incubator at 37° C. for 2 h. Supernatants were removed from the wells, and the reduced MTT dye was solubilized in 200 μl/well DMSO. Absorbance at 570 nm was determined on a plate reader.
as §2

[5] = WB (IC50 for WB, Tables 1-9); format: cell-based; details: marker, cell line and unit inferred
Experimental: Immunoblotting. Cells in T-75 flasks were collected by scraping, and suspended in 60 μl of phosphate-buffered saline (PBS). Two μl of the suspension was taken for protein analysis using the Bradford assay kit (Bio-Rad, Hercules, Calif.). To the remaining solution was added the same volume of 2×SDS-PAGE sample loading buffer (100 mM Tris-HCl, pH 6.8, 4% SDS, 5% β-mercaptoethanol 20% glycerol, and 0.1% bromophenol blue). The mixture was sonicated briefly, and boiled for 5 min. Equal amounts of proteins were loaded onto 10% SDS-PAGE gels.
After electrophoresis, protein bands were transferred to nitrocellulose membranes in a semidry transfer cell. The transblotted membrane was washed twice with Tris-buffered saline (TBS) containing 0.1% Tween 20 (TBST). After blocking with TBST containing 5% nonfat milk for 40 min, the membrane was incubated with the appropriate primary antibody in TBST-1% nonfat milk at 4° C. overnight. All primary antibodies were diluted 1:1000 in 1% nonfat milk-containing TBST. After treatment with the primary antibody, the membrane was washed three times with TBST for a total of 15 min, followed by incubation with goat anti-rabbit or anti-mouse IgG-horseradish peroxidase conjugates (diluted 1:5000) for 1 h at room temperature and three washes with TBST for a total of 1 h. The immunoblots were visualized by enhanced chemiluminescence.

[6] = unit inferred, read-out: IC50 for inhibiting BH3-mediated protein interactions (Bcl-xL)
[7] = unit inferred, read-out: IC50 for inhibiting BH3-mediated protein interactions (Bcl-2)
[8] = inhibition of Bak BH3 peptide binding to Bcl-xL, FP, read-out: IC50 Bcl-xl/Bak
[9] = inhibition of Bak BH3 peptide binding to Bcl-2, FP, read-out: IC50 Bcl-2/Bak

Sequence of Bcl-2 (P10415 whole entry): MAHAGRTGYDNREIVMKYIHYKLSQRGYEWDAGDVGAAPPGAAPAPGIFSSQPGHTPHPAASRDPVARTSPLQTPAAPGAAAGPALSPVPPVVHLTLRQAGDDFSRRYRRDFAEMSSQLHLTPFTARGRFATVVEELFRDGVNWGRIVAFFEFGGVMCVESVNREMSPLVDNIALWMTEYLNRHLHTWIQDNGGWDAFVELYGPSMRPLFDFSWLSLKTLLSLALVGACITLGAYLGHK
T1 sequence (Q07817 1-209 limits assumed): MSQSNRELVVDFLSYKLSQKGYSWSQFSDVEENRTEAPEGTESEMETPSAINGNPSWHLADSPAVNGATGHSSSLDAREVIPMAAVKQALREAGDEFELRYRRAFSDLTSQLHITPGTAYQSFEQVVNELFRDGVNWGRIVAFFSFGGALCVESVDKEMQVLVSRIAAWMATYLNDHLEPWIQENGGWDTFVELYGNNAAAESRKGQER

| Compound | IC50 [1, 6] [µM] | IC50 [2, 7] [µM] | IC50 [1, 8] [µM] | IC50 [2, 9] [µM] | IC50 [3] [µM] | IC50 [5] [µM] | IC50 [4] [µM] |
| --- | --- | --- | --- | --- | --- | --- | --- |
| CCc1ccc(CCOc2ccc(CC3SC(=O)NC3=O)cc2)nc1 (centres unmarked) [PG, pioglitazone, reference compound] | > 50 | > 50 |  |  |  |  |  |
| CN(CCOc1ccc(CC2SC(=O)NC2=O)cc1)c1ccccn1 (centres unmarked) [RG, rosiglitazone, reference compound] | > 50 | > 50 |  |  |  |  |  |
| C=CCOc1c(C)c(C)c2c(c1C)CCC(C)(COc1ccc(/C=C3\SC(=S)NC3=O)cc1)O2 (centres unmarked) [TG-3] |  |  | 4.8 ± 0.5 | 7.3 ± 0.3 | 10 ± 1.2 |  |  |
| C=CCOc1c(C)c(C)c2c(c1C)CCC(C)(COc1ccc(/C=C3\SC(=O)NC3=O)cc1)O2 (centres unmarked) [TG-6] |  |  | 6 ± 0.5 | 5.5 ± 0.4 | 11 ± 0.8 | 3 | 9 |
| C=CCOc1c(C)c(C)c2c(c1C)CCC(C)(COc1ccc(/C=C3\SC(=O)N(CC(=O)OC)C3=O)cc1)O2 (centres unmarked) [TG-9] |  |  | > 50 | > 50 | > 50 | > 7.5 | > 50 |
| O=C1NC(=O)/C(=C/c2ccc(OCC3CCc4ccccc4C3)cc2)S1 (centres unmarked) [TG-15] |  |  | 16 ± 0.5 | 18 ± 0.9 | 12 ± 0.9 | 3.8 |  |
| COc1cc(/C=C2\SC(=O)NC2=O)ccc1OCC1(C)CCc2c(C)c(OCC=C(C)C)c(C)c(C)c2O1 (centres unmarked) [TG-16] |  |  | 6.5 ± 0.5 | 4.8 ± 0.5 | 4.7 ± 0.2 | 5.6 |  |
| CC(C)=CCOc1c(C)c(C)c2c(c1C)CCC(C)(COc1ccc(/C=C3\SC(=O)NC3=O)cc1C)O2 (centres unmarked) [TG-17] |  |  | 2.6 ± 0.3 | 3.1 ± 0.4 | 4.8 ± 0.3 | 3.2 |  |
| C=CCOc1c(C)c(C)c2c(c1C)CCC(C)(COc1ccc(/C=C3\SC(=O)NC3=O)cc1Br)O2 (centres unmarked) [TG-27] |  |  | 2.1 ± 0.2 | 2.7 ± 0.4 | 5 ± 0.5 | > 7.5 |  |
| C=CCOc1c(C)c(C)c2c(c1C)CCC(C)(COc1ccc(/C=C3\SC(=O)NC3=O)cc1C)O2 (centres unmarked) [TG-29] |  |  | 3 ± 0.3 | 3.5 ± 0.6 | 5.1 ± 0.4 | 3.6 |  |

More lines, in order of falling IC50 [1, 8], values ahead:

| IC50 [1, 6] [µM] | IC50 [2, 7] [µM] | IC50 [1, 8] [µM] | IC50 [2, 9] [µM] | IC50 [3] [µM] | IC50 [5] [µM] | Compound | IC50 [4] [µM] |
| --- | --- | --- | --- | --- | --- | --- | --- |
|  |  | 14 ± 1.1 | 18 ± 0.9 | 18 ± 1.3 | 3.6 | Cc1c(C)c2c(c(C)c1OCc1ccccc1)CCC(C)(COc1ccc(/C=C3\SC(=O)NC3=O)cc1)O2 (centres unmarked) [TG-12] |  |
|  |  | 6.5 ± 0.5 | 6.6 ± 0.6 | 5 ± 0.4 | > 7.5 | CC(C)=CCOc1c(C)c(C)c2c(c1C)CCC(C)(COc1ccc(/C=C3\SC(=O)NC3=O)cc1-c1ccc(F)cc1)O2 (centres unmarked) [TG-32] |  |
|  |  | 4.5 ± 0.4 | 4.8 ± 0.4 | 9 ± 1 | 7 | CC(C)=CCOc1c(C)c(C)c2c(c1C)CCC(C)(COc1ccc(/C=C3\SC(=O)NC3=O)cc1)O2 (centres unmarked) [TG-14] |  |
|  |  | 4 ± 0.3 | 4.4 ± 0.3 | 5.2 ± 0.5 | 2.3 | C=CCOc1c(C)c(C)c2c(c1C)CCC(C)(COc1ccc(/C=C3\SC(=O)NC3=O)cc1OC)O2 (centres unmarked) [TG-28] |  |
|  |  | 2.7 ± 0.3 | 3.4 ± 0.5 | 6 ± 0.4 | 7.2 | CC(C)=CCOc1c(C)c(C)c2c(c1C)CCC(C)(COc1ccc(/C=C3\SC(=O)NC3=O)cc1F)O2 (centres unmarked) [TG-30] |  |
|  |  | 2.2 ± 0.2 | 3.1 ± 0.4 | 6 ± 0.3 | > 7.5 | Cc1c(C)c2c(c(C)c1OC/C=C/c1ccccc1)CCC(C)(COc1ccc(/C=C3\SC(=O)NC3=O)cc1Br)O2 (centres unmarked) [TG-11] |  |
|  |  | 2 ± 0.2 | 2.8 ± 0.4 | 4.4 ± 0.4 | 2.7 | CC(C)=CCOc1c(C)c(C)c2c(c1C)CCC(C)(COc1c(Br)cc(/C=C3\SC(=O)NC3=O)cc1Br)O2 (centres unmarked) [TG-34] |  |
